Reference: paper PMC7259758 (PLoS ONE, 2020)
Read-outs that look alike come from different tables or passages of the source.

What was measured:
phosphorylation of SF3B1 = assay: Western blot of nuclear extracts, phosphor-SF3B1; conditions: 4 h
Description: (§3) HCT116 cells were seeded at 3 million cells per 100 mm culture plate. The next day cells were treated with 5 μM or 10 μM of each compound for 4h and 8h. […] The pellet was snap frozen on dry ice and then thawed and spun at 12K rpm for 5 min, 4C. The supernatant was collected (nuclear extract) and protein concentrations determined using BCA Protein Assay Kit. […] The proteins were transferred to PVDF membrane using a wet transfer system. […] After the secondary antibody incubation, membranes were washed 4X with PBS containing 0.1% Tween-20 and 1X with PBS before imaging using the Li-Cor Odyssey imaging system.
(§4) Lanes 6 to 10 are nuclear extracts from Rh18 cells.

GSK3α(h) = target: T1, GSK3α(h) (Homo sapiens, UniProt P49840); assay: Radiometric protein kinase assay (Eurofins); type: biochemical; conditions: ATP 10 μM
T1 construct: purchased Eurofins, Dundee, Scotland
Description: (§1) Enzymatic biochemical activities were evaluated in radiometric protein kinase assays (Eurofins, Dundee, Scotland). Kinases are incubated with buffer, substrate and [γ-^33P]-ATP (specific activity approx. 500 cpm/pmol, concentration as required). The reaction is initiated by the addition of the MgATP mix. After incubation for 40 minutes at room temperature, the reaction is stopped by the addition of 3% phosphoric acid solution. 10 μL of the reaction is then spotted onto a P30 filtermat and washed three times for 5 minutes in 75 mM phosphoric acid and once in methanol prior to drying and scintillation counting. All compounds are prepared to 50x final assay concentration in 100% DMSO. Positive control wells contain all components of the reaction with 2% DMSO. Blank wells contain all components of the reaction, with a reference inhibitor replacing the compound of interest. Each kinase is assigned a standard assay concentration of ATP within 20 μM of its apparent Km. Compounds were screened at 1 μM in duplicate or tested at 10 concentrations at half log dilution starting from 10 μM in singlicate. Dose response curves were fitted with four parameter logistic curve to obtain IC50 values. […]
(§2) Staurosporine is used as reference for all tested enzymes except for SRPK3 (reference inhibitor: K-252a. Nocardiopsis sp), NEK2 (reference inhibitor: […]), and CK2, CK2α2, MAPK1, MAPK2 (reference inhibitor: PKR Inhibitor). See Table 1 below for additional details.

CK2 (h) = target: T2, CK2 (h) (Homo sapiens, UniProt P68400); assay: Radiometric protein kinase assay (Eurofins); type: biochemical; conditions: ATP 10 μM
T2 construct: purchased Eurofins, Dundee, Scotland
T2 sequence (P68400 whole entry): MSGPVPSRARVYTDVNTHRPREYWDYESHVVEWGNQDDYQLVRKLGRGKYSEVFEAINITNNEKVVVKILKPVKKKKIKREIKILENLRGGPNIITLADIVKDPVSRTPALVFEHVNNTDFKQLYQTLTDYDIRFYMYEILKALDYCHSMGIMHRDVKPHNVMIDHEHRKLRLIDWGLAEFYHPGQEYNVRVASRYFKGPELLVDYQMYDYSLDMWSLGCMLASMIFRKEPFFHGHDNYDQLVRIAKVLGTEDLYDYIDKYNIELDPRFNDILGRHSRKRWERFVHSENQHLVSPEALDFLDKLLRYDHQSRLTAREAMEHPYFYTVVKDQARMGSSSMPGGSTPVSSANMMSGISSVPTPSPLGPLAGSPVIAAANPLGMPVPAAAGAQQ
T2 sequence (P67870 whole entry partner): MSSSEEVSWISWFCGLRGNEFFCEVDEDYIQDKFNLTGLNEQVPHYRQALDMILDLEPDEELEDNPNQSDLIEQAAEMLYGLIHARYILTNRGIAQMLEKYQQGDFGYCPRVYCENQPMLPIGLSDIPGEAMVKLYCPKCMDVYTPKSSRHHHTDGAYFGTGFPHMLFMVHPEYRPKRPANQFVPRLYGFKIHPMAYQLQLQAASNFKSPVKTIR
Description: as §1, §2

CLK1(h) = target: T3, CLK1(h) (Homo sapiens, UniProt P49759); assay: Radiometric protein kinase assay (Eurofins); type: biochemical; conditions: ATP 10 μM
T3 construct: purchased Eurofins, Dundee, Scotland
Description: as §1, §2

CK2α2 (h) = target: T4, CK2α2 (h) (Homo sapiens, UniProt P19784); assay: Radiometric protein kinase assay (Eurofins); type: biochemical; conditions: ATP 10 μM; read-out: CK2a2 IC50
T4 construct: purchased Eurofins, Dundee, Scotland
T4 sequence (P19784 whole entry): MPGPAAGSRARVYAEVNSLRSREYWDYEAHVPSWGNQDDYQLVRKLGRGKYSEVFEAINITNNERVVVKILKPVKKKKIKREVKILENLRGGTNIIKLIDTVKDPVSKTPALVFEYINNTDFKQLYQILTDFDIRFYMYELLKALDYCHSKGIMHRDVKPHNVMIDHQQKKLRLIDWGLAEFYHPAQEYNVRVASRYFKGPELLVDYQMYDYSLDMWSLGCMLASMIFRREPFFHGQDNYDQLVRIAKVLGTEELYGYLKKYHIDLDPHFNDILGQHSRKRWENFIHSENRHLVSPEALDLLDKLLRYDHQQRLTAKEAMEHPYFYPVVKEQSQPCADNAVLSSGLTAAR
Description: as §1, §2

CLK4(h) = target: T5, CLK4(h) (Homo sapiens, UniProt Q9HAZ1); assay: Radiometric protein kinase assay (Eurofins); type: biochemical; conditions: ATP 10 μM
T5 construct: purchased Eurofins, Dundee, Scotland
T5 sequence (Q9HAZ1 whole entry): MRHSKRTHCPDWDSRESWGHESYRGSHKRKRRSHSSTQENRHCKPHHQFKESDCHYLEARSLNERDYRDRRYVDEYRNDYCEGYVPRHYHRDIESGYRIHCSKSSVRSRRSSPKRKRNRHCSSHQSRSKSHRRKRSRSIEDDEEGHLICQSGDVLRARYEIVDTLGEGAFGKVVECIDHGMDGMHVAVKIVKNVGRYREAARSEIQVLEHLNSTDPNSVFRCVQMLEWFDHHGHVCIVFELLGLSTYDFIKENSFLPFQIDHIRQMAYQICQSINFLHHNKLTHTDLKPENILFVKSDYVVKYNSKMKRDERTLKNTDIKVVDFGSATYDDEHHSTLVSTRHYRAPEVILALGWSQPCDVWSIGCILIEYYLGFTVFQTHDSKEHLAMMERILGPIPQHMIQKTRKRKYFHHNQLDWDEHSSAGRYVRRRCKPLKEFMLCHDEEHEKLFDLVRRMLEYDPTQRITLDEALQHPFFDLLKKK
Description: as §1, §2

AKT3 = target: T6, AKT3 (Homo sapiens, UniProt Q9Y243); assay: Radiometric protein kinase assay (Eurofins); type: biochemical; conditions: ATP 45 μM
T6 construct: purchased Eurofins, Dundee, Scotland
T6 sequence (Q9Y243 whole entry): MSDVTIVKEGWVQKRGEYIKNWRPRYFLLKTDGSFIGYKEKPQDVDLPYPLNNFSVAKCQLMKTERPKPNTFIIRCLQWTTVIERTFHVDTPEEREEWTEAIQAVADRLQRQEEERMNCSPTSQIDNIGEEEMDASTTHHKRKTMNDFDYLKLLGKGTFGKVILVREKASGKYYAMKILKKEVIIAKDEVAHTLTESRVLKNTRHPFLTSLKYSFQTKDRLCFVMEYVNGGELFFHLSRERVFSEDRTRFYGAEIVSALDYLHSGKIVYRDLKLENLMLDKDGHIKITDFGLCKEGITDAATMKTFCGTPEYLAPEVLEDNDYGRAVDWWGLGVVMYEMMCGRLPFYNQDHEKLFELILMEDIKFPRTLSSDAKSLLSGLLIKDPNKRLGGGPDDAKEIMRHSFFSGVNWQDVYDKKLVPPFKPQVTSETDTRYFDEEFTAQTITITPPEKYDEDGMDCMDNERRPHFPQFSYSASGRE
Description: as §1, §2

DYRK1A(h) = target: T7, DYRK1A(h) (Homo sapiens, UniProt Q13627); assay: Radiometric protein kinase assay (Eurofins); type: biochemical; conditions: ATP 45 μM
T7 construct: purchased Eurofins, Dundee, Scotland
Description: as §1, §2

SRPK1(h) = target: T8, SRPK1(h) (Homo sapiens, UniProt Q96SB4); assay: Radiometric protein kinase assay (Eurofins); type: biochemical; conditions: ATP 10 μM
T8 construct: purchased Eurofins, Dundee, Scotland
T8 sequence (Q96SB4 whole entry): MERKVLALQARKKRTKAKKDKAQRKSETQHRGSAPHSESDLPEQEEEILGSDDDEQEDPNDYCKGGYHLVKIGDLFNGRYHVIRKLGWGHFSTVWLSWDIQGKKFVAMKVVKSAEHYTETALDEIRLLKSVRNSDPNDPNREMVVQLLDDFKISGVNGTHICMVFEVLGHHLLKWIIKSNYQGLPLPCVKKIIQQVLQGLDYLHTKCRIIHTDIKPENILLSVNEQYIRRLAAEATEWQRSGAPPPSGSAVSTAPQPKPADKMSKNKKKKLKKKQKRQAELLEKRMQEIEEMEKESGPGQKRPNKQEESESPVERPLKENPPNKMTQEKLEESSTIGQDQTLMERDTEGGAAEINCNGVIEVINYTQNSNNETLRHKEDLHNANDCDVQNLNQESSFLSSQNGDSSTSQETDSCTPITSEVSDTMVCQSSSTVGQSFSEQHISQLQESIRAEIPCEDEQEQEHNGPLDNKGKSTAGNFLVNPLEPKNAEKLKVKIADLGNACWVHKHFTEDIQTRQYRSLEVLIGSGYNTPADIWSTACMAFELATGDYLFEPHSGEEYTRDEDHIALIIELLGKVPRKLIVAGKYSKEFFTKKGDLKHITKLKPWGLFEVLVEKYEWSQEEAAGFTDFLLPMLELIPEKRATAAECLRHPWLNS
Description: as §1, §2

CLK3(h) = target: T9, CLK3(h) (Homo sapiens, UniProt P49761); assay: Radiometric protein kinase assay (Eurofins); type: biochemical; conditions: ATP 90 μM
T9 construct: purchased Eurofins, Dundee, Scotland
Description: as §1, §2

DYRK1B (h) = target: T10, DYRK1B (h) (Homo sapiens, UniProt Q9Y463); assay: Radiometric protein kinase assay (Eurofins); type: biochemical; conditions: ATP 45 μM
T10 construct: purchased Eurofins, Dundee, Scotland
T10 sequence (Q9Y463 whole entry): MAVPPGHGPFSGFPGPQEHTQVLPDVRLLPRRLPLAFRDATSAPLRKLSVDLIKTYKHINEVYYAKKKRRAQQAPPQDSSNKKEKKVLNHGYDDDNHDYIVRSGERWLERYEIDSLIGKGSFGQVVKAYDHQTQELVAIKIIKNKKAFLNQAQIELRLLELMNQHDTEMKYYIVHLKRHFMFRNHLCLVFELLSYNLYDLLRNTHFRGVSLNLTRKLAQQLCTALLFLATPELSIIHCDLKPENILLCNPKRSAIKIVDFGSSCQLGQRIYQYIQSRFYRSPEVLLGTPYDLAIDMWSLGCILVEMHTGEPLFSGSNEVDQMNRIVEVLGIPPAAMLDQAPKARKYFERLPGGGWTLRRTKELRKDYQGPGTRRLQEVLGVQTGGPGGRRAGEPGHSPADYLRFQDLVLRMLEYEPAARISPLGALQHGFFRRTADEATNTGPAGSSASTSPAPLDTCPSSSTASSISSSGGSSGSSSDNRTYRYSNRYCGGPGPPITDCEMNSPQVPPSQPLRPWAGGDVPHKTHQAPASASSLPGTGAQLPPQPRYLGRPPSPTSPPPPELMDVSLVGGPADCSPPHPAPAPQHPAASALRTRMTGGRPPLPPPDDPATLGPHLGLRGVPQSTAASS
Description: as §1, §2

SRPK3 (h) = target: T11, SRPK3 (h) (Homo sapiens, UniProt Q9UPE1); assay: Radiometric protein kinase assay (Eurofins); type: biochemical; conditions: ATP 15 μM
T11 construct: purchased Eurofins, Dundee, Scotland
Description: as §1, §2

MAPK2 (h) = target: T12, MAPK2 (h) (Homo sapiens, UniProt P28482); assay: Radiometric protein kinase assay (Eurofins); type: biochemical; conditions: ATP 155 μM
T12 construct: purchased Eurofins, Dundee, Scotland
T12 sequence (P28482 whole entry): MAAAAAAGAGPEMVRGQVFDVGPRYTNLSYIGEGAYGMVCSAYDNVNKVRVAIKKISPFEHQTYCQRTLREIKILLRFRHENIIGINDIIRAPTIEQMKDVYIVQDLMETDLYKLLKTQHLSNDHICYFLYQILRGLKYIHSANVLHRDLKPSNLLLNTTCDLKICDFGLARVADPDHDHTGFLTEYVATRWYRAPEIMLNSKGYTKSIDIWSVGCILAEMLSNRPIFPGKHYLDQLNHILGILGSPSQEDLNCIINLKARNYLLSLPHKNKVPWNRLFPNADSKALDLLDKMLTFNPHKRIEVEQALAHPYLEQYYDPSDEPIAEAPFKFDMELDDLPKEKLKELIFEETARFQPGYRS
Description: as §1, §2

DYRK2 (h) = target: T13, DYRK2 (h) (Homo sapiens, UniProt Q92630); assay: Radiometric protein kinase assay (Eurofins); type: biochemical; conditions: ATP 15 μM
T13 construct: purchased Eurofins, Dundee, Scotland
T13 sequence (Q92630 1-601): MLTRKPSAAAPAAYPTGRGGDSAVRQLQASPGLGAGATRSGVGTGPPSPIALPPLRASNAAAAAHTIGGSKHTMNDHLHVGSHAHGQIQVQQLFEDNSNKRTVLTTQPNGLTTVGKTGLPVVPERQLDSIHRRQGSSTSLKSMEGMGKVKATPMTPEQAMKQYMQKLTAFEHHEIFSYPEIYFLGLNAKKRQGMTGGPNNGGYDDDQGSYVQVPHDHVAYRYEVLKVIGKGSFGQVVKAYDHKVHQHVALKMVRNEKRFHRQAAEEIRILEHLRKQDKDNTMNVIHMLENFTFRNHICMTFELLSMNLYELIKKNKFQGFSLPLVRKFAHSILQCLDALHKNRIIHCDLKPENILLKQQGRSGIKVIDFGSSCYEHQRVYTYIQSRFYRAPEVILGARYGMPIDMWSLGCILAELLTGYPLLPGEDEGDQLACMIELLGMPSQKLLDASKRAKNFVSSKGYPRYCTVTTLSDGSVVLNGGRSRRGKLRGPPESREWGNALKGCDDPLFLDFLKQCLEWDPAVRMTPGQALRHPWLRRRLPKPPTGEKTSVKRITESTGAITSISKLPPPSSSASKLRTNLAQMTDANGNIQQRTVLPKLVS
Description: as §1, §2

MAPK1 (h) = target: T14, MAPK1 (h) (Homo sapiens, UniProt P27361); assay: Radiometric protein kinase assay (Eurofins); type: biochemical
T14 construct: purchased Eurofins, Dundee, Scotland
T14 sequence (P27361 whole entry): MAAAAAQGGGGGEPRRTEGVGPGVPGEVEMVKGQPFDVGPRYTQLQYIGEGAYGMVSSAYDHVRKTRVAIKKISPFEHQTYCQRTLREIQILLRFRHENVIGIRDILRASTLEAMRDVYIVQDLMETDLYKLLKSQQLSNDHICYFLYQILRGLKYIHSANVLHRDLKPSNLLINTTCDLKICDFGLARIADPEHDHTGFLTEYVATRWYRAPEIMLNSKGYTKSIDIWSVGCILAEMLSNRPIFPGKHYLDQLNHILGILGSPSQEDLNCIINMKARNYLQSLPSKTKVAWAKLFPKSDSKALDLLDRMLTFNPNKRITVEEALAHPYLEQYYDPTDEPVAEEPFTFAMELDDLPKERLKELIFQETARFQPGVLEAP
Description: as §1, §2

SRPK2 (h) = target: T15, SRPK2 (h) (Homo sapiens, UniProt P78362); assay: Radiometric protein kinase assay (Eurofins); type: biochemical; conditions: ATP 10 μM
T15 construct: purchased Eurofins, Dundee, Scotland
T15 sequence (P78362 whole entry): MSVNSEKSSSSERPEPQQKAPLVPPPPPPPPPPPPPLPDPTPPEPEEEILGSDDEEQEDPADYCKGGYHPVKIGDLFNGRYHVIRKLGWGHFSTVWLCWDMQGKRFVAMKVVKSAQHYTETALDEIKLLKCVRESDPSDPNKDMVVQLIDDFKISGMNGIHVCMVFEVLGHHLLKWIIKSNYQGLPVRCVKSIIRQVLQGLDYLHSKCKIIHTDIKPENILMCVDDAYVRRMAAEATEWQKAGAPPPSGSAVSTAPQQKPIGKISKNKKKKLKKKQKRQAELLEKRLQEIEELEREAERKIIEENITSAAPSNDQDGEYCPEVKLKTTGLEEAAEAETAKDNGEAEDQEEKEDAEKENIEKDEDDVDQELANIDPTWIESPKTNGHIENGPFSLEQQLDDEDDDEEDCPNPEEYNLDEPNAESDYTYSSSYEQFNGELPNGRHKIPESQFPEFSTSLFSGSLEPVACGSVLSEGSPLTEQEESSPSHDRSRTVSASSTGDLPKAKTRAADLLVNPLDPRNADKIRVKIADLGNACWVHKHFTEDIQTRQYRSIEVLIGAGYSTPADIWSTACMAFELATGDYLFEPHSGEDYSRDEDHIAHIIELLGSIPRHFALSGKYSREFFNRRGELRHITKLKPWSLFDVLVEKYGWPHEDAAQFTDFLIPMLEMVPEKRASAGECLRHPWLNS
Description: as §1, §2

SF3B1 = target: T16, SF3B1 (Homo sapiens, UniProt O75533+Q7RTV0); assay: Competitive antagonist assay (TESLR in the presence of SD6 or hit compound); type: cell-based; conditions: 6 μM compound for one hour, then serial dilutions of sudemycinol C for another 4 hours
T16 construct: endogenous in cells
Description: SK-MEL-2/Luc-MDM2 stable cells were plated at a density of 20,000 cells/well in 96-well plates and incubated overnight at 37°C in 5% CO2.[27, 28] The following day, cells were treated with 14 analogs using serial dilution for one hour. The list of compounds screened as potential TESLR antagonists are show in SI file. After one-hour pre-treatment, 4 μM of SD6 were added to the pre-treated cells for another 4 hours. Either 0.5% DMSO or serial dilutions of SD6 were used to treat cells for 4 hours as controls. At the end of incubation time, ONE-Glo™ EX reagents (Promega) were added to measure the luciferase activity. […]
Fig 6 Competitive antagonist assay. (Left Panel) The assay that identified two antagonists of SD6 activity in the TESLR screen, which are useful for the determination of SF3B1 binding. Relative luminescent units were plotted against corresponding drug concentrations and fitted with a standard four parameter sigmoidal curve with GraphPad Prism. (Right Panel) The structures of the antagonists and SD6. See SI for chemistry details.
. SK-MEL-2/Luc-MDM2 stable cells were plated at a density of 20000/well in 96-well plates and incubated overnight at 37°C in 5% CO2. […]. After one-hour pre-treatment, serial dilutions of the sudemycinol C were added to the pre-treated cells for another 4 hours. […]. At the end of incubation time, ONE-Glo™ EX reagents (Promega) were added to measure the luciferase activity. […]. DR: dose response.

[1] = test system: triple-exon skipping of MDM2 pre-mRNA in SK-MEL-2/Luc-MDM2 cells; assay: TESLR (Triple Exon Skipping Luciferase Reporter) dose response; conditions: for EC50: read-out: TESLR EC50; for TESLR Maximum fold change: 4 hours
Description: SK-MEL-2/MDM2-Luc stable cells were cultured in MEM medium with Earle's salts and L-glutamine containing 1 mM sodium pyruvate, 10% FCS and 10 mM Hepes and plated at a density of 10,000/well in 96-well plates and incubated overnight at 37°C in 5% CO2. The following day, cells were treated with serial dilutions of compounds for 4 hrs, ONE-Glo reagents (Promega) were added to measure the luciferase activity on an EnVision plate reader. SD6 and 0.5% DMSO were used as positive and negative controls, respectively. Relative luminescent units were plotted against corresponding drug concentrations and fitted with a standard four parameter sigmoidal curve with GraphPad Prism.
The TESLR assay in SK-MEL-2/Luc-MDM2 cells with 4 hour treatment. SK-MEL-2/Luc-MDM2 stable cells were plated at a density of 20,000 cells/well in 96-well plates and incubated overnight at 37°C in 5% CO2. The following day, cells were treated with either 0.5% DMSO or serial dilution of hits identified from the library screen in 0.5% DMSO for 4 hours. ONE-Glo™ EX reagent (Promega) was added to measure the luciferase activity using an EnVision plate reader. Relative luminescent units were plotted against corresponding drug concentrations and fitted with a standard four parameter sigmoidal curve with GraphPad Prism.
SK-MEL-2/Luc-MDM2 stable cells were plated at a density of 20,000 cells/well in 96-well plates and incubated overnight at 37°C in 5% CO2. The following day, cells were treated with serial dilutions of the indicated compounds for 4 hours and ONE-Glo™ EX reagents (Promega) were added to measure the luciferase activity.

[2] = test system: MDM2 pre-mRNA splicing in Rh18 cells; assay: RT-PCR confirmation of splicing changes, MDM2; type: cell-based; conditions: 4 h, SD6 10 μM, compound 1 10 μM, compound 2 5 μM, compound 3 10 μM
Description: RH-18 cells were cultured in RPMI 1640 medium containing 10% FCS. Cells are all maintained in humidified incubator with 5% CO2 at 37°C. Rh18 cells were exposed to 0.5% DMSO or SD6 10 μM, Cpd1 10 μM, Cpd2 5 μM or Cpd3 10 μM for 4 h. Total RNA was extracted and converted to cDNA. PCR was performed using NEB Q5 Master Mix and specific primers listed below (Table 2) according to the manufacturer’s instruction and standard PCR protocols: 50 ng cDNA and 30 μl of the final reaction volume was used. PCR products were subjected to 3% agarose gel electrophoresis.
AS patterns were identified with compound treatment for MDM2 and RBM39 transcripts. Ubiquitin (UBQ) transcripts were used as a control since these are not spliced. […] Rh18 cells were treated with either DMSO control or compounds for 4 h. Total RNA was extracted and converted to cDNA. PCR was performed using corresponding primers and PCR products were subjected to 3% agarose gel electrophoresis.

CDK2/cyclinA (h) = target: T17, CDK2/cyclinA (h) (Homo sapiens, UniProt P24941); assay: Radiometric protein kinase assay (Eurofins); type: biochemical; conditions: ATP 45 μM
T17 construct: purchased Eurofins, Dundee, Scotland
Description: Enzymatic biochemical activities were evaluated in radiometric protein kinase assays (Eurofins, Dundee, Scotland). Kinases are incubated with buffer, substrate and [γ-^33P]-ATP (specific activity approx. 500 cpm/pmol, concentration as required). The reaction is initiated by the addition of the MgATP mix. After incubation for 40 minutes at room temperature, the reaction is stopped by the addition of 3% phosphoric acid solution. 10 μL of the reaction is then spotted onto a P30 filtermat and washed three times for 5 minutes in 75 mM phosphoric acid and once in methanol prior to drying and scintillation counting. All compounds are prepared to 50x final assay concentration in 100% DMSO. Positive control wells contain all components of the reaction with 2% DMSO. Blank wells contain all components of the reaction, with a reference inhibitor replacing the compound of interest. […] Compounds were screened at 1 μM in duplicate or tested at 10 concentrations at half log dilution starting from 10 μM in singlicate. Dose response curves were fitted with four parameter logistic curve to obtain IC50 values.

[3] = test system: phosphorylation of SR proteins; assay: Western blot of nuclear extracts, phosphor-SR proteins; conditions: HCT116 and Rh18 cells, 4 h; SD6 10 μM, compound 1 10 μM, compound 2 5 μM, compound 3 10 μM
Description: as §3, §4

[4] = SK-MEL-2/Luc-MDM2 cells, 4 hour treatment, luciferase activity
[5] = SK-MEL-2/Luc-MDM2 cells, luciferase activity

Compound: CN(c1ncccc1CNc1nc(Nc2ccc3c(c2)CC(=O)N3)ncc1C(F)(F)F)S(C)(=O)=O [Compound 3, PF-562271]
- Effect on phosphorylation of SF3B1 (immunoblot) (phosphorylation of SF3B1; HCT116 cells, 10 μM): inhibited the phosphorylation of SF3B1 protein in HCT116 cells
- IC50 (GSK3α(h)): 221 nM
- CK2 IC50 (CK2 (h)): NA (NA: Not Active (less than 50% inhibition at 1 micromolar))
- IC50 (CLK1(h)): 141 nM
- IC50 (CK2α2 (h)): 374 nM
- IC50 (CLK4(h)): 155 nM
- AKT3 IC50 (AKT3): NA (NA: Not Active (less than 50% inhibition at 1 micromolar))
- DYRK1A IC50 (DYRK1A(h)): NA (NA: Not Active (less than 50% inhibition at 1 micromolar))
- SRPK1 IC50 (SRPK1(h)): NA (NA: Not Active (less than 50% inhibition at 1 micromolar))
- CLK3 IC50 (CLK3(h)): NA (NA: Not Active (less than 50% inhibition at 1 micromolar))
- DYRK1B IC50 (DYRK1B (h)): NA (NA: Not Active (less than 50% inhibition at 1 micromolar))
- SRPK3 IC50 (SRPK3 (h)): NA (NA: Not Active (less than 50% inhibition at 1 micromolar))
- IC50 (MAPK2 (h)): 863 nM
- DYRK2 IC50 (DYRK2 (h)): NA (NA: Not Active (less than 50% inhibition at 1 micromolar))
- MAPK1 IC50 (MAPK1 (h)): NA (NA: Not Active (less than 50% inhibition at 1 micromolar))
- SRPK2 IC50 (SRPK2 (h)): NA (NA: Not Active (less than 50% inhibition at 1 micromolar))
- Antagonism of the compound's TESLR activity by sudemycinol C (SF3B1): did not antagonize
- EC50 [1, 4]: 5560 nM
- MDM2 alternative splicing (AS) pattern by RT-PCR [2]: dominant MDM2 transcript (the same size as the DMSO control) and an AS isoform of 785 bp
- IC50 (CDK2/cyclinA (h)): 203 nM

Compound: COc1ncc2cc(C(=O)Nc3cc(C(=O)NCc4cccc(Cl)c4)ccc3Cl)c(=O)[nH]c2n1 [Mirk-IN-1]
- TESLR Maximum fold change [1, 5]: 30.7
- EC50 [1, 4]: 15000 nM

Compound: CNC(=O)OC(C)C=CC(=O)NC1CCC(CC=C(C)C=CC2CC3(CO3)CC(C)(C)O2)CC1 (stereo not shown) [SD6, sudemycin D6]
- Effect on phosphorylation of SR proteins (immunoblot) [3]: did not inhibit the phosphorylation of SR proteins
- Effect on phosphorylation of SF3B1 (immunoblot) (phosphorylation of SF3B1; HCT116 and Rh18 cells, SD6 10 μM, compound 1 10 μM, compound 2 5 μM): did inhibit the phosphorylation of SF3B1
- EC50 ([1]; Homo sapiens, SK-MEL-2, 4 h): 862 nM
- TESLR Maximum fold change [1, 5]: 28.3
- MDM2 alternative splicing (AS) pattern by RT-PCR [2]: dominant AS isoform at size of 1019 bp

Compound: CC(C)(C)c1cnc(CSc2cnc(NC(=O)C3CCNCC3)s2)o1 [SNS-032]
- IC50 ([1]; Homo sapiens, SK-MEL-2, 4 h, read-out: TESLR IC50 in inducing triple exon skipping): > 10000 nM
